What was measured:
Type in all cases: biochemical
[1] = molecular target: T1, SIK2(h) (Homo sapiens, UniProt Q9H0K1); test: Eurofins kinase panel; settings: read-out: Inhibition rate (%)
T1 construct: purchased Eurofins (KinaseProfiler)

[2] = molecular target: T2, ICK(h) (Homo sapiens, UniProt Q9UPZ9); test: Eurofins kinase panel; settings: read-out: Inhibition rate (%)
T2 construct: purchased Eurofins (KinaseProfiler)
T2 sequence (Q9UPZ9 1-632): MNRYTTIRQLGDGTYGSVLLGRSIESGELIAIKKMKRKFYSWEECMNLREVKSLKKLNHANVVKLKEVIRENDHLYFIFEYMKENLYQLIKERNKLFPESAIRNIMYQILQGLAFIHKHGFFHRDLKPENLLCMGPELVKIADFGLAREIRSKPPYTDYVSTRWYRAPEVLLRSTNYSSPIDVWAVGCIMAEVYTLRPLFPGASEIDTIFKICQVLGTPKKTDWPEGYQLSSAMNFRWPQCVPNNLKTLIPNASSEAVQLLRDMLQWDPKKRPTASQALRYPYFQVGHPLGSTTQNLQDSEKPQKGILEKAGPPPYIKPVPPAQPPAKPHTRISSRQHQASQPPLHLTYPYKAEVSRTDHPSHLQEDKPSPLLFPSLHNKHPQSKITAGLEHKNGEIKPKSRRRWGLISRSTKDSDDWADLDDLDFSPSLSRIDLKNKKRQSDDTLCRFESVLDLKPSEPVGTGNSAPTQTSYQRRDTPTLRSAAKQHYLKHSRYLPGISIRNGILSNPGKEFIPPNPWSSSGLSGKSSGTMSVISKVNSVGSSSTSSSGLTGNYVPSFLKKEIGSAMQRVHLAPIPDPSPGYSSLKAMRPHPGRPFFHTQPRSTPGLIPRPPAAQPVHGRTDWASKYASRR

[3] = molecular target: T3, IRR(h) (Homo sapiens, UniProt P14616); test: Eurofins kinase panel; settings: read-out: Inhibition rate (%)
T3 construct: purchased Eurofins (KinaseProfiler)

[4] = molecular target: T4, B-Raf(V599E)(h) (Homo sapiens, UniProt P15056, V600E); test: Eurofins kinase panel; settings: read-out: Inhibition rate (%)
T4 construct: purchased Eurofins (KinaseProfiler)
T4 sequence (P15056 417-766 V600E limits assumed): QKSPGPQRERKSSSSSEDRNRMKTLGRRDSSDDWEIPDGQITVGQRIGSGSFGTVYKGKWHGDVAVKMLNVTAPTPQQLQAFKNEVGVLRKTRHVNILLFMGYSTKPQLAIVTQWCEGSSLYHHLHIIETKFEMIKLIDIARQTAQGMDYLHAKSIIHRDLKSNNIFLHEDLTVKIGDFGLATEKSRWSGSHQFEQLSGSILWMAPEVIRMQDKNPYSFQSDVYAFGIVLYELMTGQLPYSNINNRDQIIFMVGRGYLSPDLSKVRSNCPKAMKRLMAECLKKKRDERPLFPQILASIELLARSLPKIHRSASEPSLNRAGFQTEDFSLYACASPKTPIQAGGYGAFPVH

[5] = molecular target: T5, Mer(h) (Homo sapiens, UniProt Q12866); test: Eurofins kinase panel; settings: read-out: Inhibition rate (%)
T5 construct: purchased Eurofins (KinaseProfiler)
T5 sequence (Q12866 21-999): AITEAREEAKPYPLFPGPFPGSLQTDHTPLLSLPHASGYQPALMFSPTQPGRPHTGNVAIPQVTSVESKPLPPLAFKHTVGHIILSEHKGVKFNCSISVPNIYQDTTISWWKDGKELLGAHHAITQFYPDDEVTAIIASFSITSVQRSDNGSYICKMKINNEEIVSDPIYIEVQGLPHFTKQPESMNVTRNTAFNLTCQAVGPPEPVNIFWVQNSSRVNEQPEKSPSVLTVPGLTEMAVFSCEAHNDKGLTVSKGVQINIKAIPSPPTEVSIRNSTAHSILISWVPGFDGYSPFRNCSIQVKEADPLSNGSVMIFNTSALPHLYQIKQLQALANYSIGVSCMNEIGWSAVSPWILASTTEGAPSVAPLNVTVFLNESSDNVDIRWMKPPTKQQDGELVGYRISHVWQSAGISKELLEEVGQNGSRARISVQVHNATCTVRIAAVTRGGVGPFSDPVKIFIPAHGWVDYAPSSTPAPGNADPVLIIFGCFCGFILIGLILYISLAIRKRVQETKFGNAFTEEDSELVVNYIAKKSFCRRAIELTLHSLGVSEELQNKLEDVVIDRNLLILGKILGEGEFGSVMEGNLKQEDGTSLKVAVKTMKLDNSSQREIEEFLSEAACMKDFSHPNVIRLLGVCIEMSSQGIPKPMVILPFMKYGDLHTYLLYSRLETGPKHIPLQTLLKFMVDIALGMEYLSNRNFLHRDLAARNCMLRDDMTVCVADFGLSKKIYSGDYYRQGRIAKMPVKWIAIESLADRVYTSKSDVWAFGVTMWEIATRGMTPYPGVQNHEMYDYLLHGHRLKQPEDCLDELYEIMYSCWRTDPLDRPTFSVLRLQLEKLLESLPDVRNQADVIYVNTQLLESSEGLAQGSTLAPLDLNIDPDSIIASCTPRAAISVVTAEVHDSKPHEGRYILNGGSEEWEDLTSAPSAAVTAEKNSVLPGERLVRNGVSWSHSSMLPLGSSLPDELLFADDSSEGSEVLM

[6] = molecular target: T6, HIPK1(h) (Homo sapiens, UniProt Q86Z02); test: Eurofins kinase panel; settings: read-out: Inhibition rate (%)
T6 construct: purchased Eurofins (KinaseProfiler)
T6 sequence (Q86Z02 whole entry): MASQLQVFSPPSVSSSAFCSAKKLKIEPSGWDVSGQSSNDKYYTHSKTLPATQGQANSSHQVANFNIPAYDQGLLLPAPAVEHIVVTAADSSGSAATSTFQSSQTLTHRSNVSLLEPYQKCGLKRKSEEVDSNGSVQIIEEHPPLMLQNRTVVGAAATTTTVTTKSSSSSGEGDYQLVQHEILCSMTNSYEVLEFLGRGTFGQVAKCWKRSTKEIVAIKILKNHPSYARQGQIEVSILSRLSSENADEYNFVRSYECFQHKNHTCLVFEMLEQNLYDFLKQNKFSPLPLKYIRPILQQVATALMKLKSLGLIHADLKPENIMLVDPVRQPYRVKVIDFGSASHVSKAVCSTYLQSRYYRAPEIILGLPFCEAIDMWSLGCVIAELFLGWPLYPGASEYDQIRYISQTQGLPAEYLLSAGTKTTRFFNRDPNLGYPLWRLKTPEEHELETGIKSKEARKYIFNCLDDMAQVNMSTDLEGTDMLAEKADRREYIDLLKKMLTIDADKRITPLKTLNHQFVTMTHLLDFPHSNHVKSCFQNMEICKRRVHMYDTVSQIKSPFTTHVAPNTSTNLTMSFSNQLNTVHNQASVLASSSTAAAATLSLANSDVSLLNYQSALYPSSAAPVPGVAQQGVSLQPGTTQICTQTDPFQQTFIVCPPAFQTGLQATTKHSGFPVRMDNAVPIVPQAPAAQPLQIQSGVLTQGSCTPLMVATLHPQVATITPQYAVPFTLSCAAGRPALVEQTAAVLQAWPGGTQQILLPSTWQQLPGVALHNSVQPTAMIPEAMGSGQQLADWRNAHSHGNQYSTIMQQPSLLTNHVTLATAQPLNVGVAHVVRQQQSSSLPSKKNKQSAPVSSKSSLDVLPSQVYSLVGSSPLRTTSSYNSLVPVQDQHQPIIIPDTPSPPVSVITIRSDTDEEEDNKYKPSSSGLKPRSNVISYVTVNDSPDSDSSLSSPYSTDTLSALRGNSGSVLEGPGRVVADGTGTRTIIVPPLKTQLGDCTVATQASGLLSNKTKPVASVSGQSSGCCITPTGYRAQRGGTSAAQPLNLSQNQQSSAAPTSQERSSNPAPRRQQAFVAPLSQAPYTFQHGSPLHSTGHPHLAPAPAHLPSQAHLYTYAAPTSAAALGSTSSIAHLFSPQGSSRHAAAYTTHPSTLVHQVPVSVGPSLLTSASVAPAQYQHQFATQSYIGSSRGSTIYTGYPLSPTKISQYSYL

[7] = molecular target: T7, CDK12/cyclinK(h) (Homo sapiens, UniProt Q9NYV4); test: Eurofins kinase panel; settings: read-out: Inhibition rate (%)
T7 construct: purchased Eurofins (KinaseProfiler)
T7 sequence (Q9NYV4 whole entry): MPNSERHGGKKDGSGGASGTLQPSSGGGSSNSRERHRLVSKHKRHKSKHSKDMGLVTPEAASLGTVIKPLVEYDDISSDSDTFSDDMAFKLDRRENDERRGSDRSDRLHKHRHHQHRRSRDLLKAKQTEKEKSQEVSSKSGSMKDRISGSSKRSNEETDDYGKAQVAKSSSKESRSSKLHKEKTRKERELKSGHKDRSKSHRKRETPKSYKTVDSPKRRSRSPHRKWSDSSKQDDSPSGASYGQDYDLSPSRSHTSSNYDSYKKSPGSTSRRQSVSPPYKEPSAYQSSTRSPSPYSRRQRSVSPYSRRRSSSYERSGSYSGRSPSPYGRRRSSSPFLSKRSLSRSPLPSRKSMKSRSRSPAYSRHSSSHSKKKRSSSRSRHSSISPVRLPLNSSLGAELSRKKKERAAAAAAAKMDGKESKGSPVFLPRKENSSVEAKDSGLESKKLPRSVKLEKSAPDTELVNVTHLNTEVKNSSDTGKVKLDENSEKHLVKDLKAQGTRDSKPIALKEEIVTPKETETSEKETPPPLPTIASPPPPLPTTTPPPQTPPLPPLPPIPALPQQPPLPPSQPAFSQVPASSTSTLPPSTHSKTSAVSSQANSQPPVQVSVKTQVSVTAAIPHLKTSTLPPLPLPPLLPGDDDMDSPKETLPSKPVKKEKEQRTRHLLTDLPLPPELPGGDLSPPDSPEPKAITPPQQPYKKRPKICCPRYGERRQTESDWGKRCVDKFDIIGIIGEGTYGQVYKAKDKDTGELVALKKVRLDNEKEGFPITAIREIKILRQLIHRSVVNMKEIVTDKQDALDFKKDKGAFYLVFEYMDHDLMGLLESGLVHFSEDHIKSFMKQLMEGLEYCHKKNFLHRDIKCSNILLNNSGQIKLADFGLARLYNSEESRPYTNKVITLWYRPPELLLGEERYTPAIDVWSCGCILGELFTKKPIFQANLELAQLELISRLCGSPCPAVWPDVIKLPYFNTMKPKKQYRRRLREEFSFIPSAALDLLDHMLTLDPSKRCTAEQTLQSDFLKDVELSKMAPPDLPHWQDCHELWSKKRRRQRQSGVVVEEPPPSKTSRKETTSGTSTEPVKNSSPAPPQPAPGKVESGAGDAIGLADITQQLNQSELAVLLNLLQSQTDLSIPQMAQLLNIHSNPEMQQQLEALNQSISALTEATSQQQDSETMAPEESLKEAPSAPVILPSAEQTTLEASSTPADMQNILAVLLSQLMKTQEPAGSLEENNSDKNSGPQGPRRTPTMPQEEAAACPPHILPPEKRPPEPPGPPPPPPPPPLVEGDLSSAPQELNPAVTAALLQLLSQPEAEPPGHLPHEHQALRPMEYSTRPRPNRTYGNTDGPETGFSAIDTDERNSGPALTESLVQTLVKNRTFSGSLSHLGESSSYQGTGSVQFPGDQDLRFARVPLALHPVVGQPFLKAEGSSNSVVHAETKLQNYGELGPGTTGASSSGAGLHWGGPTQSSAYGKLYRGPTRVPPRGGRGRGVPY
T7 sequence (O75909 whole entry partner): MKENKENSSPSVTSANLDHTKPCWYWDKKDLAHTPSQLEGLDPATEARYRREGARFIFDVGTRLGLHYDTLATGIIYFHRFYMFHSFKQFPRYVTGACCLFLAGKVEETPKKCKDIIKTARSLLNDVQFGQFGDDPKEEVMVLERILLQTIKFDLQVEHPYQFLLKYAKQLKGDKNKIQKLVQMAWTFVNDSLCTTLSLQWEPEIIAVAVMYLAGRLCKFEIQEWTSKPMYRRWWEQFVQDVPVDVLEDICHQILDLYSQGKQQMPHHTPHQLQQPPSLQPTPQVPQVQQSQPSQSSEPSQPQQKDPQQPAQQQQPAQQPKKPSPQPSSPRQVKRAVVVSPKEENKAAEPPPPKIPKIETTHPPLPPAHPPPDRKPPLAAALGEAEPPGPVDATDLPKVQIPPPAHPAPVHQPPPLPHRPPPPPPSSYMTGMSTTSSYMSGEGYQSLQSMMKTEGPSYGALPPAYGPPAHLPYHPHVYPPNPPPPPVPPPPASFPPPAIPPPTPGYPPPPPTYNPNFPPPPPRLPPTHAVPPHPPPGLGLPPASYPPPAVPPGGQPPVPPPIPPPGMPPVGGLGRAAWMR

[8] = molecular target: T8, GSK3β(h) (Homo sapiens, UniProt P49841); test: Eurofins kinase panel; settings: read-out: Inhibition rate (%)
T8 construct: purchased Eurofins (KinaseProfiler)

[9] = molecular target: T9, CHK2(R145W)(h) (Homo sapiens, UniProt O96017, R145W); test: Eurofins kinase panel; settings: read-out: Inhibition rate (%)
T9 construct: purchased Eurofins (KinaseProfiler)
T9 sequence (O96017 whole entry R145W): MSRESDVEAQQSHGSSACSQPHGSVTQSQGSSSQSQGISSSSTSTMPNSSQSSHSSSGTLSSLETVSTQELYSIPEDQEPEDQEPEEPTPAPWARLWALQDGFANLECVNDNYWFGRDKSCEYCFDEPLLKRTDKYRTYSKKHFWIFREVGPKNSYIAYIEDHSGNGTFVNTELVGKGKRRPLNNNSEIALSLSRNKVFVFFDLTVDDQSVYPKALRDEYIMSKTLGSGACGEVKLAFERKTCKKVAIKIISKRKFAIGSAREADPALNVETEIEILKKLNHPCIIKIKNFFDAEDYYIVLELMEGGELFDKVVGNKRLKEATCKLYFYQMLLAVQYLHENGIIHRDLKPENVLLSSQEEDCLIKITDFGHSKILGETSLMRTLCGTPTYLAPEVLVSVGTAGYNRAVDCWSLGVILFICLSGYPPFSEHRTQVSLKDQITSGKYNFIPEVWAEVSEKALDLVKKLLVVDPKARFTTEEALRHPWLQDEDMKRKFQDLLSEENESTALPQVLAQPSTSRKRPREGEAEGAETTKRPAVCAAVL

[10] = molecular target: T10, VEGFR3 (Homo sapiens, UniProt P35916); test: Kinase inhibition assay (ELISA)
T10 construct: purchased Eurofins (Fremont, United States)
Procedure: (§1) Active FGFR1–4, VEGFR1, KDR, VEGFR3, PDGFRα and PDGFRβ proteins were purchased from Eurofins (Fremont, United States), and kinase activity was assessed using ELISA, as previously reported. […]. Increasing concentrations of ATP were diluted for the kinase reaction in the ATP competition assay. CSF-1R kinase activity was analyzed using the Z’-LYTE™ Kinase Assay Kit (Thermo Fisher, United States). The assay formats are described in the SelectScreen Kinase Profiling Service Zlyte protocol. IC50 values were calculated by dose-response curve fitting using Prism (Graph Pad).

[11] = molecular target: T11, VEGFR1 (Homo sapiens, UniProt P17948); test: Kinase inhibition assay (ELISA)
T11 construct: purchased Eurofins (Fremont, United States)
Procedure: as §1

[12] = molecular target: T12, PDGFRβ (Homo sapiens, UniProt P09619); test: Kinase inhibition assay (ELISA)
T12 construct: purchased Eurofins (Fremont, United States)
Procedure: as §1

[13] = molecular target: T13, PDGFRα (Homo sapiens, UniProt P16234); test: Kinase inhibition assay (ELISA)
T13 construct: purchased Eurofins (Fremont, United States)
Procedure: as §1

T1 sequence (Q9H0K1 whole entry): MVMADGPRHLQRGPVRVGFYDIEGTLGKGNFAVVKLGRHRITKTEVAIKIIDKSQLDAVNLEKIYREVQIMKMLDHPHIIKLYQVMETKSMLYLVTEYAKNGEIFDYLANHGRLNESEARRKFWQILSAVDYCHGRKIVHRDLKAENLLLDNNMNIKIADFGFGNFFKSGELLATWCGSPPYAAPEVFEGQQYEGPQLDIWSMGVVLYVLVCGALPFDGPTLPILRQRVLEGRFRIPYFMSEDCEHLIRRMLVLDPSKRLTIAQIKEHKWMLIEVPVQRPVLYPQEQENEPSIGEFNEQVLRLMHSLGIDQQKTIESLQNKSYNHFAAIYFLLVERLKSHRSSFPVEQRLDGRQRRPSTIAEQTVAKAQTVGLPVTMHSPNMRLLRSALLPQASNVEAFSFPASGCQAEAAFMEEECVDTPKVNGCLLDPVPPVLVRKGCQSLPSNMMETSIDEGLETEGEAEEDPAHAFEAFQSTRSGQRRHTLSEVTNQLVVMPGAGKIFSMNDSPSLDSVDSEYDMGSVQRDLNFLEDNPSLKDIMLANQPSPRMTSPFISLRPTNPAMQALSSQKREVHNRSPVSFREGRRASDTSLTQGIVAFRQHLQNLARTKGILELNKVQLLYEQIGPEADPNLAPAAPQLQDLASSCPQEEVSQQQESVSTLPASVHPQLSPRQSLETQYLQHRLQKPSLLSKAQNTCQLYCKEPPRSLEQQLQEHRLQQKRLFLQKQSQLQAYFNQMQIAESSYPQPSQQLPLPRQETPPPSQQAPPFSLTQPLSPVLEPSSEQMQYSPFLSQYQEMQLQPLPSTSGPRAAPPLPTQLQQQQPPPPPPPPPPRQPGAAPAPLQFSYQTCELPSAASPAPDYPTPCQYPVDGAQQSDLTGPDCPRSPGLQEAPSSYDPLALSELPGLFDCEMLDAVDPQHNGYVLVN

Compound: COc1cc(OC)c(Cl)c(-c2ccc3c(NC(=O)c4ccc(N5CCNC(C)(C)C5)cc4)n[nH]c3n2)c1Cl [3D185]
- inhibition at 0.01 µM ([1]; 10 nM): 7%
- inhibition at 0.1 µM ([1]; 100 nM): 5%
- inhibition at 1 µM ([1]; 1000 nM): 4%
- inhibition at 0.01 µM ([2]; 10 nM): -10%
- inhibition at 0.1 µM ([2]; 100 nM): -5%
- inhibition at 1 µM ([2]; 1000 nM): 4%
- inhibition at 0.01 µM ([3]; 10 nM): -5%
- inhibition at 0.1 µM ([3]; 100 nM): 5%
- inhibition at 1 µM ([3]; 1000 nM): 1%
- inhibition at 0.01 µM ([4]; 10 nM): -1%
- inhibition at 0.1 µM ([4]; 100 nM): -6%
- inhibition at 1 µM ([4]; 1000 nM): 7%
- inhibition at 0.01 µM ([5]; 10 nM): -9%
- inhibition at 0.1 µM ([5]; 100 nM): -7%
- inhibition at 1 µM ([5]; 1000 nM): 32%
- inhibition at 0.01 µM ([6]; 10 nM): -3%
- inhibition at 0.1 µM ([6]; 100 nM): 4%
- inhibition at 1 µM ([6]; 1000 nM): 10%
- inhibition at 0.01 µM ([7]; 10 nM): -6%
- inhibition at 0.1 µM ([7]; 100 nM): 4%
- inhibition at 1 µM ([7]; 1000 nM): 7%
- inhibition at 0.01 µM ([8]; 10 nM): 0%
- inhibition at 0.1 µM ([8]; 100 nM): 5%
- inhibition at 1 µM ([8]; 1000 nM): -5%
- inhibition at 0.01 µM ([9]; 10 nM): -17%
- inhibition at 0.1 µM ([9]; 100 nM): -15%
- inhibition at 1 µM ([9]; 1000 nM): -4%
- IC50 [10]: > 1000 nM
- IC50 [11]: > 1000 nM
- IC50 [12]: > 1000 nM
- IC50 [13]: > 1000 nM

Source: PMC6704710, “Preclinical evaluation of 3D185, a novel potent inhibitor of FGFR1/2/3 and CSF-1R, in FGFR-dependent and macrophage-dominant cancer models” (Journal of Experimental & Clinical Cancer Research : CR, 2019)
